# Assay results from US4623662A, “Antiatherosclerotic ureas and thioureas” (American Cyanamid Company, priority 1985, dated 1986).
# Molecular target: T1, fatty acyl CoA: cholesterol acyl transferase (ACAT) (Rattus norvegicus, UniProt O70536)
# T1 construct: The supernatant, containing the microsomal fraction, served as the source of the cholesterol-esterifying enzyme; from tissue; host or cells: rat adrenals, supernatant of 1,000 x g centrifugation containing the microsomal fraction
# T1 sequence (O70536 1-545): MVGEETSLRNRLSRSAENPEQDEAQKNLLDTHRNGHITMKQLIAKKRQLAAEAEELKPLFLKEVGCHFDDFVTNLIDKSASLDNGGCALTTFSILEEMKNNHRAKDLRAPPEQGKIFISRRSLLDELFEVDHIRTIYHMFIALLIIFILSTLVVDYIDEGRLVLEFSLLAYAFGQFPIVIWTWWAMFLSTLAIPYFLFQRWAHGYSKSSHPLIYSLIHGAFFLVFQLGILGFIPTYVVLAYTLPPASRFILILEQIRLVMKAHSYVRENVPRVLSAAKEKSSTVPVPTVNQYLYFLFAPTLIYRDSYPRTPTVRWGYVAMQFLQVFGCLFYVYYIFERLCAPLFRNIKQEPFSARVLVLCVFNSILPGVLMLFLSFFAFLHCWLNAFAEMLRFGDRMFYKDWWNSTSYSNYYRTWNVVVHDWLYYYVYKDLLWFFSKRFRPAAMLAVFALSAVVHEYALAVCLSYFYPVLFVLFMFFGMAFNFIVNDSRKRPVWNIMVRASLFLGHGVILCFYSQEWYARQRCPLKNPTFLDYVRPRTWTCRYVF
# Test: Inhibition of fatty acyl CoA:cholesterol acyl transferase (ACAT), rat adrenal enzyme
# Assay type: biochemical
# Details: not given
# Procedure: The compounds of the present invention were assayed for two types of biological activity related to their potential use as antiatherosclerotic agents. Compounds were tested in vitro for the ability to inhibit the enzyme fatty acyl CoA: cholesterol acyl transferase (ACAT) and in vivo for serum hypolipidemic activity as meausred by the ability to inhibit lipid absorption in rats.
# The compounds were tested for their ability to inhibit ACAT according to the following procedure: rat adrenals were homogenized in 0.2M monobasic potassium phosphate buffer, pH 7.4, and centrifuged at 1,000 times gravity for 15 minutes at 5° C. The supernatant, containing the microsomal fraction, served as the source of the cholesterol-esterifying enzyme, fatty acyl CoA:cholesterol acyl transferase (ACAT). A mixture comprising 50 parts of adrenal supernatant, 10 parts of bovine serum albumin (50 mg/ml), 3 parts of test compound (final concentration 5.2 μg/ml), and 500 parts of buffer was preincubated at 37° C. for 10 minutes. After treatment with 20 parts of oleoyl CoA (^14 C-0.4 μCi), the mixture was incubated at 37° C. for 10 minutes. A control mixture, omitting the test compound, was prepared and treated in the same manner. The lipids from the incubation mixture was extracted into an organic solvent and separated by thin-layer chromatography. The cholesteryl ester fraction was counted in a scintillation counter. This procedure is a modification of that described by Hashimoto, et al., Life Scie., 12 (Part II), 1-12 (1973).
# Compounds which produced statistically significant inhibition of the ACAT enzyme are considered to be active.
# In addition to the above described test and the results given in terms of percent inhibition, various compounds of this invention were tested by the same procedure at several concentrations. The results of this test are given in Table II in terms of IC50 (μM), that concentration which produced 50% inhibition of the ACAT enzyme.
row,Structure (SMILES),inhibition at 5.2 µg/mL
1,"CC(C)(C)CCN(Cc1ccc(Cl)cc1)C(=O)Nc1cccc(C(F)(F)F)c1 [1-(3,3-Dimethylbutyl)-1-(4-chlorobenzyl)-3-(3-trifluoromethylphenyl)urea]",90%
2,"CCCCc1ccc(CN(CCC(C)(C)C)C(=O)Nc2cccc(C(F)(F)F)c2)cc1 [1-(3,3-Dimethylbutyl)-1-[4-(n-butyl)benzyl]-3-(3-trifluoromethylphenyl)urea]",90%

# Same assay, conditions: rat adrenal ACAT; final concentration 5.2 μg/ml; read-out: % Inhibition
row,Structure (SMILES),inhibition at 5.2 µg/mL
1,"Cc1ccc(CCN(Cc2ccc3c(c2)OCO3)C(=O)Nc2ccc(C)cc2C)cc1 [1-(3,4-Methylenedioxybenzyl)-1-[2-(4-methylphenyl)ethyl]-3-(2,4-dimethylphenyl)urea]",41.2%
2,"Cc1ccc(NC(=O)N(CCC(c2ccccc2)c2ccccc2)c2ccc3c(c2)OCO3)c(C)c1 [1-(3,4-Methylenedioxyphenyl)-1-(3,3-diphenylpropyl)-3-(2,4-dimethylphenyl)urea]",87.8%
3,O=C(Nc1ccc(Cl)cc1C(F)(F)F)N(Cc1ccc(Cl)cc1)Cc1cccc2ccccc12 [1-(4-Chlorobenzyl)-1-(1-naphthylmethyl)-3-(2-trifluoromethyl-4-chlorophenyl)urea],83%
4,CCCCCOc1ccc(CN(Cc2ccc(CCCCC)cc2)C(=O)Nc2ccc(Cl)cc2C)cc1 [1-(4-n-Pentylbenzyl)-1-(4-n-pentyloxybenzyl)-3-(2-methyl-4-chlorophenyl)urea],91%
5,CCCCCOc1ccc(CN(Cc2ccc(CCCCC)cc2)C(=O)Nc2ccc(Cl)cc2C(F)(F)F)cc1 [1-(4-n-Pentylbenzyl)-1-(4-n-pentyloxybenzyl)-3-(2-trifluoromethyl-4-chlorophenyl)urea],81%
6,CCCCCOc1ccc(CN(Cc2ccc(CCCCC)cc2)C(=O)Nc2cccc(C(F)(F)F)c2)cc1 [1-(4-n-Pentylbenzyl)-1-(4-n-pentyloxybenzyl)-3-(3-trifluoromethylphenyl)urea],85%
7,CCCCOc1ccc(CN(Cc2ccccc2)C(=O)Nc2cccc(C(F)(F)F)c2)cc1 [1-(n-Benzyl)-1-(4-n-butoxybenzyl)-3-(3-trifluoromethylphenyl)urea],87%
8,"CCCCN(CC(C)(c1ccccc1)c1ccccc1)C(=O)Nc1ccc(C)cc1C [1-(n-Butyl)-1-(2-methyl-2,2-diphenyl)ethyl-3-(2,4-dimethylphenyl)urea]",97.4%
9,"CCCCCCOc1ccc(CN(CCCC)C(=O)Nc2c(C)cc(C)cc2C)cc1 [1-(n-Butyl)-1-(4-hexyloxybenzyl)-3-(2,4,6-trimethylphenyl)urea]",97.1%
10,"CCCCN(Cc1ccccc1)C(=O)Nc1cc(Cl)c(NC(=O)CCl)c(Cl)c1 [1-(n-Butyl)-1-(benzyl)-3-[4-(chloroacetamido)-3,5-dichlorophenyl]urea]",72.9%
11,CCCCN(Cc1ccccc1)C(=O)Nc1ccccc1[N+](=O)[O-] [1-(n-Butyl)-1-benzyl-3-(2-nitrophenyl)urea],37%
12,CCCCN(Cc1ccccc1)C(=O)Nc1cccc(Cl)c1O [1-(n-Butyl)-1-benzyl-3-(3-chloro-2-hydroxyphenyl)urea],71%
13,"CCCCN(Cc1ccccc1)C(=O)Nc1cc(Cl)c(N)c(Cl)c1 [1-(n-Butyl)-1-benzyl-3-(4-amino-3,5-dichlorophenyl)urea]",61.1%
14,"CCCCN(Cc1ccccc1)C(=O)Nc1cc(Cl)c(NC(=O)C(F)(F)F)c(Cl)c1 [1-(n-Butyl)-1-benzyl-3-(4-trifluoroacetylamino-3,5-dichlorophenyl)urea]",87.8%

# More lines, now with the values ahead:
row,inhibition at 5.2 µg/mL,Structure (SMILES)
1,81%,"CCCCN(Cc1ccc(Br)cc1)C(=O)Nc1ccc(C)cc1C [1-(4-Bromobenzyl)-1-(n-butyl)-3-(2,4-dimethylphenyl)urea]"
2,74.5%,"CCCCN(Cc1c(Cl)cccc1Cl)C(=O)Nc1ccc(C)cc1C [1-( -n-Butyl)-1-(2,6-dichlorobenzyl)-3-(2,4-dimethylphenyl)urea]"
3,95.5%,"CCCCN(Cc1ccccc1Cl)C(=O)Nc1ccc(C)cc1C [1-( -n-Butyl)-1-(2-chlorobenzyl)-3-(2,4-dimethylphenyl)urea]"
4,83.6%,"CCCCN(Cc1ccccc1F)C(=O)Nc1ccc(C)cc1C [1-( -n-Butyl)-1-(2-fluorobenzyl)-3-(2,4-dimethylphenyl)urea]"
5,94.4%,"CCCCc1ccc(CN(CCCC)C(=O)Nc2ccc(C)cc2C)cc1 [1-( -n-Butyl)-1-(4- -n-butylbenzyl)-3-(2,4-dimethylphenyl)urea]"
6,80.6%,"CCCCN(Cc1ccc(F)cc1)C(=O)Nc1ccc(C)cc1C [1-( -n-Butyl)-1-(4-fluorobenzyl)-3-(2,4-dimethylphenyl)urea]"
7,87.9%,"CCCCN(CCc1ccccc1)C(=O)Nc1ccc(C)cc1C [1-(n-Butyl)-1-(2-phenylethyl)-3-(2,4-dimethylphenyl)urea]"
8,88.2%,"CCCCN(Cc1ccc2c(c1)OCO2)C(=O)Nc1ccc(C)cc1C [1-(n-Butyl)-1-(3,4-methylenedioxybenzyl)-3-(2,4-dimethylphenyl)urea]"
9,97.4%,"CCCCN(CCCc1ccccc1)C(=O)Nc1ccc(C)cc1C [1-(n-Butyl)-1-(3-phenylpropyl)-3-(2,4-dimethylphenyl)urea]"
10,94.6%,"CCCCN(Cc1ccc(Cl)cc1)C(=O)Nc1ccc(C)cc1C [1-(n-Butyl)-1-(4-chlorobenzyl)-3-(2,4-dimethylphenyl)urea]"
11,94.2%,"CCCCN(Cc1ccc(OC)cc1)C(=O)Nc1ccc(C)cc1C [1-(n-Butyl)-1-(4-methoxybenzyl)-3-(2,4-dimethylphenyl)urea]"
12,96.7%,"CCCCN(Cc1ccc(C)cc1)C(=O)Nc1ccc(C)cc1C [1-(n-Butyl)-1-(4-methylbenzyl)-3-(2,4-dimethylphenyl)urea]"
13,97.1%,"CCCCN(Cc1ccc(-c2ccccc2)cc1)C(=O)Nc1ccc(C)cc1C [1-(n-Butyl)-1-(4-phenylbenzyl)-3-(2,4-dimethylphenyl)urea]"
14,96.4%,"CCCCN(Cc1ccc(C(C)(C)C)cc1)C(=O)Nc1ccc(C)cc1C [1-(n-Butyl)-1-(4-tert-butylbenzyl)-3-(2,4-dimethylphenyl)urea]"
15,93.3%,"CCCCN(Cc1ccc(C(F)(F)F)cc1)C(=O)Nc1ccc(C)cc1C [1-(n-Butyl)-1-(4-trifluoromethylbenzyl)-3-(2,4-dimethylphenyl)urea]"
16,97%,"CCCCN(CCc1cccc(Br)c1)C(=O)Nc1ccc(C)cc1C [1-(n-Butyl)-1-[2-(3-bromophenyl)ethyl]-3-(2,4-dimethylphenyl)urea]"
17,98.3%,"CCCCN(CCc1cccc(OC)c1)C(=O)Nc1ccc(C)cc1C [1-(n-Butyl)-1-[2-(3-methoxyphenyl)ethyl]-3-(2,4-dimethylphenyl)urea]"
18,93.3%,"CCCCN(CCc1ccc(Cl)cc1)C(=O)Nc1ccc(C)cc1C [1-(n-Butyl)-1-[2-(4-chlorophenyl)ethyl]-3-(2,4-dimethylphenyl)urea]"
19,96.1%,"CCCCN(CCc1ccc(F)cc1)C(=O)Nc1ccc(C)cc1C [1-(n-Butyl)-1-[2-(4-fluorophenyl)ethyl]-3-(2,4-dimethylphenyl)urea]"
20,36.4%,"CCCCN(CCCc1ccc(OC)c(OC)c1)C(=O)Nc1ccc(C)cc1C [1-(n-Butyl)-1-[3-(3,4-dimethoxyphenyl)propyl]-3-(2,4-dimethylphenyl)urea]"
21,93.8%,"CCCCCCc1ccc(CN(CCCC)C(=O)Nc2ccc(C)cc2C)cc1 [1-(n-Butyl)-1-[4-(n-hexyl)benzyl]-3-(2,4-dimethylphenyl)urea]"
22,85.6%,CCCCN(Cc1ccccc1)C(=O)Nc1cc(Cl)ccc1O [1-(n-Butyl)-1-benzyl-3-(2-hydroxy-5-chlorophenyl)urea]
23,96.1%,"CCCCCCCCCCN(Cc1ccccc1)C(=O)Nc1ccc(C)cc1C [1-(n-Decyl)-1-benzyl-3-(2,4-dimethylphenyl)urea]"

# Same assay, conditions: rat adrenal ACAT; several concentrations
row,IC50,Structure (SMILES)
1,1.13 µM,"Cc1cc(Cl)cc(C)c1NC(=O)N(CCCCCC(C)O)Cc1ccc(CC(C)(C)C)cc1 (stereo not shown) [1-(6-Hydroxyheptyl)-1-[4-(2,2-dimethylpropyl)benzyl]-3-(4-chloro-2,6-dimethylphenyl)urea]"
